This passage reports GI50 and TGI results from PubChem BioAssay (NCI).

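Dose response: 5 concentrations. Exposure: 48 h. Format: 96-well plates. Endpoint: linear interpolation; highest concentration if not reached. The concentration for 50% growth inhibition is given as GI50. TGI: concentration producing complete growth inhibition.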 Bounds are passed on as bounds.

Some test systems named below: SW-620 colon; COLO 205 colon; SF-295 CNS; HT29 colon; ACHN renal; 786-0 renal; UACC-62 melanoma; HCT-15 colon; PC-3 prostate; NCI-H23 lung.
What all share (test): DTP human tumour cell line panel, 48 h

In the case of `CCCOc1cc2ccccc2cc1C(=O)Nc1nc(NC)c2c(ccc3nccc32)[nH]1`, the GI50 is 0.383 µM with SW-620 colon; 0.479 µM with COLO 205 colon; 0.0866 µM in the assay on SF-295 CNS; 0.208 µM in the assay with HT29 colon; 0.52 µM in the assay with ACHN renal; 0.613 µM in the assay on 786-0 renal. Further, the GI50 is 0.556 µM with UACC-62 melanoma, 0.24 µM with HCT-15 colon, 0.494 µM in the assay on PC-3 prostate and 1.1 µM in the assay on NCI-H23 lung. Further, the TGI is 1.74 µM in the assay on SW-620 colon; 1.81 µM in the assay with COLO 205 colon; 1.2 µM in the assay on SF-295 CNS; 0.446 µM in the assay on HT29 colon; 1.91 µM in the assay with ACHN renal; 2.07 µM in the assay on 786-0 renal. In addition, the TGI in the assay with UACC-62 melanoma stood at 2.12 µM; in the assay with HCT-15 colon, 1.03 µM; with PC-3 prostate, 2 µM; in the assay with NCI-H23 lung, 2.53 µM.

For `Nc1ccccc1C#C/C=C\C#CC#C/C=C\C#Cc1ccccc1N`, the GI50 with SW-620 colon was 7.54 µM; with COLO 205 colon it was 13.5 µM; with SF-295 CNS, 5.23 µM; with HT29 colon, 8.36 µM; in the assay on ACHN renal it was 5.38 µM; with 786-0 renal it was 9.76 µM. In addition, the GI50 was 2.18 µM with UACC-62 melanoma, 3.74 µM in the assay with HCT-15 colon, 2.59 µM with PC-3 prostate and 5.17 µM in the assay with NCI-H23 lung. The TGI was determined as 30.7 µM in the assay on SW-620 colon; 35.9 µM in the assay with COLO 205 colon; 30.2 µM in the assay with SF-295 CNS; 32.7 µM in the assay on HT29 colon; 40.4 µM in the assay with ACHN renal; 24.6 µM in the assay on 786-0 renal. Besides, the TGI in the assay on UACC-62 melanoma was found to be 13.1 µM; in the assay with HCT-15 colon, 24.2 µM; in the assay with PC-3 prostate, 16.5 µM; in the assay on NCI-H23 lung, 23.3 µM.

Consider `NCCCOc1cc2ccccc2cc1C(=O)Nc1ccc(Cl)cc1OC(=O)c1cc2ccccc2cc1OCCCN`, for which the GI50 in the assay with SW-620 colon is 0.181 µM; in the assay on COLO 205 colon, 1.27 µM; in the assay with SF-295 CNS it was 0.516 µM; in the assay with HT29 colon it was 0.266 µM; in the assay with ACHN renal it was 0.373 µM; in the assay with 786-0 renal, 0.172 µM. In addition, the GI50 is 1.44 µM in the assay with UACC-62 melanoma, 0.468 µM in the assay on HCT-15 colon, 0.575 µM with PC-3 prostate and 0.387 µM with NCI-H23 lung. The TGI in the assay with SW-620 colon was 0.345 µM; with COLO 205 colon, 2.63 µM; in the assay with SF-295 CNS, 1.44 µM; in the assay with ACHN renal, 0.972 µM; in the assay with 786-0 renal, 0.327 µM; in the assay on UACC-62 melanoma, 2.85 µM. Moreover, the TGI was found to be 1.15 µM with HCT-15 colon, 1.58 µM with PC-3 prostate and 1.2 µM with NCI-H23 lung.

Take `O=C(CSCC(=O)N/N=C/c1ccccc1O)N/N=C\c1ccccc1O`: the GI50 in the assay on SW-620 colon was 3.25 µM; in the assay on COLO 205 colon it was 2.19 µM; with SF-295 CNS it was 1.78 µM; in the assay with HT29 colon it was 5.64 µM; with ACHN renal, 0.877 µM; in the assay on 786-0 renal it was 1.95 µM. The GI50 in the assay with UACC-62 melanoma is 1.61 µM; with HCT-15 colon, 0.52 µM; in the assay on PC-3 prostate, 3.06 µM; with NCI-H23 lung it was 3.33 µM. Also, the TGI with SW-620 colon is > 100 µM; with COLO 205 colon, > 100 µM; in the assay on SF-295 CNS, > 100 µM; in the assay on HT29 colon, > 100 µM; with ACHN renal it was 25 µM; in the assay with 786-0 renal it was 6.59 µM. Besides, the TGI was 7.13 µM with UACC-62 melanoma, > 100 µM with HCT-15 colon, > 100 µM with PC-3 prostate and > 100 µM with NCI-H23 lung.

In the case of `Cc1ccc(Nc2cc(Cl)c([N+](=O)[O-])cc2[N+](=O)[O-])cc1`, the GI50 with SW-620 colon is 2.35 µM; in the assay on COLO 205 colon, 2.11 µM; in the assay on SF-295 CNS, 14.4 µM; with HT29 colon, 3.04 µM; with ACHN renal it was 4.73 µM; with 786-0 renal, 3.97 µM. Further, the GI50 with UACC-62 melanoma was 4.13 µM; in the assay with HCT-15 colon, 4.12 µM; in the assay with PC-3 prostate it was 3.59 µM; in the assay on NCI-H23 lung, 3.66 µM. The TGI in the assay with SW-620 colon came to 6.82 µM; in the assay with COLO 205 colon it was 3.92 µM; in the assay on SF-295 CNS, 34 µM; in the assay with HT29 colon, 8.07 µM; in the assay with ACHN renal, 16.2 µM; in the assay with 786-0 renal, 14 µM. Moreover, the TGI was 15.6 µM in the assay on UACC-62 melanoma, 16.5 µM in the assay on HCT-15 colon, 14.2 µM in the assay with PC-3 prostate and 14.2 µM in the assay with NCI-H23 lung.

Take `C/C=C/C/C=C/[C@H](C)C[C@H](O)[C@@H]1C[C@@H]2O[C@H]2/C=C/[C@@H]2OC(C)(C)O[C@H]2/C=C/C[C@H](C)CC(=O)O1`: the GI50 was 22.7 µM with SW-620 colon; 8.02 µM with COLO 205 colon; 6.06 µM in the assay on SF-295 CNS; 12 µM in the assay with HT29 colon; 6.05 µM in the assay with ACHN renal; 69.7 µM in the assay on 786-0 renal. The GI50 was 4.31 µM with UACC-62 melanoma, 4.84 µM in the assay with HCT-15 colon, 5.75 µM in the assay on PC-3 prostate and 6.08 µM in the assay with NCI-H23 lung. Further, the TGI with SW-620 colon was > 100 µM; with COLO 205 colon, > 100 µM; with SF-295 CNS, 60.8 µM; in the assay on HT29 colon it was > 100 µM; with ACHN renal, > 100 µM; with 786-0 renal it was > 100 µM. Besides, the TGI in the assay on UACC-62 melanoma is 20.2 µM; in the assay on HCT-15 colon it was > 100 µM; in the assay on PC-3 prostate it was > 100 µM; in the assay with NCI-H23 lung, > 100 µM.

For the compound `CC[C@@]1(OC(=O)C(N)CCCCN)C(=O)OCc2c1cc1n(c2=O)Cc2cc3ccccc3nc2-1` (some centres undefined), the TGI was > 28.7 µM in the assay on SW-620 colon; 3.39 µM with COLO 205 colon; 0.813 µM with SF-295 CNS; 11.4 µM in the assay on HT29 colon; 0.129 µM in the assay with ACHN renal; 0.163 µM in the assay on 786-0 renal. Further, the TGI in the assay on UACC-62 melanoma is 0.0707 µM; in the assay on HCT-15 colon, 15.6 µM; in the assay on PC-3 prostate, > 100 µM; with NCI-H23 lung, 0.282 µM.

Consider `Cc1cc(C(=O)Nc2n[nH]c3ccccc23)n[nH]1`, for which the GI50 in the assay on SW-620 colon, in the assay on COLO 205 colon, with SF-295 CNS, in the assay on HT29 colon, with ACHN renal and in the assay on 786-0 renal was > 100 µM in each case. Also, the GI50 in the assay on UACC-62 melanoma, with HCT-15 colon, in the assay with PC-3 prostate and in the assay on NCI-H23 lung was > 100 µM in each case. In addition, the TGI with SW-620 colon, in the assay with COLO 205 colon, in the assay on SF-295 CNS, with HT29 colon, with ACHN renal and with 786-0 renal was > 100 µM throughout. The TGI with UACC-62 melanoma, with HCT-15 colon, with PC-3 prostate and with NCI-H23 lung was > 100 µM in each case.
